Laboratory results reported in EP2385948B1, “FUSED THIAZOLO AND OXAZOLO PYRIMIDINONES” (Torrent Pharmaceuticals Limited, priority 2009, dated 2011).

System: erythropoietin
Experiment: In vitro erythropoietin induction (ELISA of cell culture supernatant)
Details: for EPO fold induction: Hep3B cell line, 50 uM, 16 hours, relative to vehicle control; for fold induction at 200 µM: Homo sapiens, Hep3B, 16 h, read-out: EPO fold induction, Hep3B cell line, 200 uM, 16 hours, relative to vehicle control
Method: Hep3B cell line (ATCC HB8064) was employed. Induction of erythropoietin was carried out for the indicated dose of compounds for 16 hours duration. At the end of 16 hours, cell culture medium was collected and centrifuged to remove any debris. Supernatant obtained was analyzed for erythropoietin by ELISA (R&D systems, USA). The results were expressed as fold induction as compared to vehicle control.

| EPO fold induction | Structure (SMILES) | fold induction at 200 µM |
| --- | --- | --- |
| ++ (++ indicates 2-4 fold) | O=C([O-])CNC(=O)c1c(O)nc2sc3c(n2c1=O)CCCC3.[Na+] | – |
| +++ (+++ indicates 5-8 fold) | O=C(O)CNC(=O)c1c(O)nc2sc3c(n2c1=O)CCCC3 [Compound 1, [(2-Hydroxy-4-oxo-5,6,7,8-tetrahydro-4H-9-thia-1,4a-diaza-fluorene-3-carbonyl)-amino]-acetic acid] | – |
| – | CCOC(=O)N1CCc2c(sc3nc(O)c(C(=O)NCC(=O)O)c(=O)n23)C1 [Compound 2, 3-(Carboxymethyl-carbamoyl)-2-hydroxy-4-oxo-5,8-dihydro-4H,6H-9-thia-1,4a,7-triaza-fluorene-7-carboxylic acid ethyl ester] | 5 to 8 |
| – | CS(=O)(=O)N1CCc2c(sc3nc(O)c(C(=O)NCC(=O)O)c(=O)n23)C1 [Compound 3, [(2-Hydroxy-7-methanesulfonyl-4-oxo-5,6,7,8-tetrahydro-4H-9-thia-1,4a,7-triaza-fluorene-3-carbonyl)-amino]-acetic acid] | 2 to 4 |
| – | CC(C)CC(=O)N1CCc2c(sc3nc(O)c(C(=O)NCC(=O)O)c(=O)n23)C1 [Compound 4, {[2-Hydroxy-7-(3-methyl-butyryl)-4-oxo-5,6,7,8-tetrahydro-4H-9-thia-1,4a,7-triaza-fluorene-3-carbonyl]-amino}-acetic acid] | 2 to 4 |
| – | CC(C)S(=O)(=O)N1CCc2c(sc3nc(O)c(C(=O)NCC(=O)O)c(=O)n23)C1 [Compound 5, {[2-Hydroxy-4-oxo-7-(propane-2-sulfonyl)-5,6,7,8-tetrahydro-4H-9-thia-1,4a,7-triaza-fluorene-3-carbonyl]-amino}-acetic acid] | 2 to 4 |
| – | O=C(NC1(C(=O)O)CCCC1)c1c(O)nc2sc3c(n2c1=O)CCCC3 [Compound 6, 1-[(2-Hydroxy-4-oxo-5,6,7,8-tetrahydro-4H-9-thia-1,4a-diaza-fluorene-3-carbonyl)-amino]-cyclopentanecarboxylic acid] | < 2 |
| – | Cc1ccc(S(=O)(=O)N2CCc3c(sc4nc(O)c(C(=O)NCC(=O)O)c(=O)n34)C2)cc1 [Compound 7, {[2-Hydroxy-4-oxo-7-(toluene-4-sulfonyl)-5,6,7,8-tetrahydro-4H-9-thia-1,4a,7-triaza-fluorene-3-carbonyl]-amino}-acetic acid] | 2 to 4 |
| – | O=C(O)CNC(=O)c1c(O)nc2sc3c(n2c1=O)CCN(C(=O)Nc1ccccc1)C3 [Compound 8, [(2-Hydroxy-4-oxo-7-phenylcarbamoyl-5,6,7,8-tetrahydro-4H-9-thia-1,4a,7-triaza-fluorene-3-carbonyl)-amino]-acetic acid] | 2 to 4 |
| – | O=C(O)CNC(=O)c1c(O)nc2sc3c(n2c1=O)CCN(C(=O)C1CC1)C3 [Compound 9, [(7-Cyclopropanecarbonyl-2-hydroxy-4-oxo-5,6,7,8-tetrahydro-4H-9-thia-1,4a,7-triaza-fluorene-3-carbonyl)-amino]-acetic acid] | 5 to 8 |
| – | O=C(O)CNC(=O)c1c(O)nc2sc3c(n2c1=O)CCC3 [Compound 11, [(2-Hydroxy-4-oxo-7,8-dihydro-4H,6H-cyclopenta[4,5]thiazolo[3,2-a]pyrimidine-3-carbonyl)-amino]-acetic acid] | 5 to 8 |
| – | CC(C)(C)C1CCc2c(sc3nc(O)c(C(=O)NCC(=O)O)c(=O)n23)C1 (centres unmarked) [Compound 13, [(7-tert-Butyl-2-hydroxy-4-oxo-5,6,7,8-tetrahydro-4H-9-thia-1,4a-diaza-fluorene-3-carbonyl)-amino]-acetic acid] | < 2 |
| – | O=C(O)CCNC(=O)c1c(O)nc2sc3c(n2c1=O)CCC3 [Compound 14, 3-[(2-Hydroxy-4-oxo-7,8-dihydro-4H,6H-cyclopenta[4,5]thiazolo[3,2-a]pyrimidine-3-carbonyl)-amino]-propionic acid] | 2 to 4 |
| – | CC(C)(C)C1CCc2c(sc3nc(O)c(C(=O)NCCC(=O)O)c(=O)n23)C1 (centres unmarked) [Compound 15, 3-[(7-tert-Butyl-2-hydroxy-4-oxo-5,6,7,8-tetrahydro-4H-9-thia-1,4a-diaza-fluorene-3-carbonyl)-amino]-propionic acid] | < 2 |
| – | O=C(O)CNC(=O)c1c(O)nc2sc3c(n2c1=O)CCN(C(=O)c1ccc(F)cc1)C3 [Compound 16, {[7-(4-Fluoro-benzoyl)-2-hydroxy-4-oxo-5,6,7,8-tetrahydro-4H-9-thia-1,4a,7-triaza-fluorene-3-carbonyl]-amino}-acetic acid] | 5 to 8 |
| – | O=C(O)CNC(=O)c1c(O)nc2sc3c(n2c1=O)CCN(S(=O)(=O)c1ccc(Cl)s1)C3 [Compound 17, {[7-(5-Chloro-thiophene-2-sulfonyl)-2-hydroxy-4-oxo-5,6,7,8-tetrahydro-4H-9-thia-1,4a,7-triaza-fluorene-3-carbonyl]-amino}-acetic acid] | 2 to 4 |
| – | O=C(O)CNC(=O)c1c(O)nc2sc3c(n2c1=O)CCN(c1ccc(C(F)(F)F)cn1)C3 [Compound 18, {[2-Hydroxy-4-oxo-7-(5-trifluoromethyl-pyridin-2-yl)-5,6,7,8-tetrahydro-4H-9-thia-1,4a,7-triaza-fluorene-3-carbonyl]-amino}-acetic acid] | 9 to 16 |
| – | O=C(O)CNC(=O)c1c(O)nc2sc3c(n2c1=O)CCN(S(=O)(=O)c1ccc(OC(F)(F)F)cc1)C3 [Compound 19, {[2-Hydroxy-4-oxo-7-(4-trifluoromethoxy-benzenesulfonyl)-5,6,7,8-tetrahydro-4H-9-thia-1,4a,7-triaza-fluorene-3-carbonyl]-amino}-acetic acid] | 2 to 4 |
| – | CC(C)(C)C(=O)N1CCc2c(sc3nc(O)c(C(=O)NCC(=O)O)c(=O)n23)C1 [Compound 20, {[7-(2,2-Dimethyl-propionyl)-2-hydroxy-4-oxo-5,6,7,8-tetrahydro-4H-9-thia-1,4a,7-triaza-fluorene-3-carbonyl]-amino}-acetic acid] | 5 to 8 |
| – | CCCCc1ccc(C(=O)N2CCc3c(sc4nc(O)c(C(=O)NCC(=O)O)c(=O)n34)C2)cc1 [Compound 21, {[7-(4-Butyl-benzoyl)-2-hydroxy-4-oxo-5,6,7,8-tetrahydro-4H-9-thia-1,4a,7-triaza-fluorene-3-carbonyl]-amino}-acetic acid] | 9 to 16 |
| – | O=C(O)CNC(=O)c1c(O)nc2sc3c(n2c1=O)CCN(C(=O)c1ccc(OC(F)(F)F)cc1)C3 [Compound 22, {[2-Hydroxy-4-oxo-7-(4-trifluoromethoxy-benzoyl)-5,6,7,8-tetrahydro-4H-9-thia-1,4a,7-triaza-fluorene-3-carbonyl]-amino}-acetic acid] | 5 to 8 |
| – | O=C(O)CNC(=O)c1c(O)nc2sc3c(n2c1=O)CCN(C(=S)Nc1ccc(F)cc1)C3 [Compound 24, {[7-(4-Fluoro-phenylthiocarbamoyl)-2-hydroxy-4-oxo-5,6,7,8-tetrahydro-4H-9-thia-1,4a,7-triaza-fluorene-3-carbonyl]-amino}-acetic acid] | 5 to 8 |
| – | CC(C)NC(=S)N1CCc2c(sc3nc(O)c(C(=O)NCC(=O)O)c(=O)n23)C1 [Compound 25, [(2-Hydroxy-7-isopropylthiocarbamoyl-4-oxo-5,6,7,8-tetrahydro-4H-9-thia-1,4a,7-triaza-fluorene-3-carbonyl)-amino]-acetic acid] | 2 to 4 |
